In patent US20240002391A1, “4-ALKOXYPYRROLO[2,1-F][1,2,4]TRIAZINES AND PREPARATION AND USES THEREOF” (BioSplice Therapeutics, Inc., priority 2022, published 2024):

Columns and labels:
[1] = target: recombinant DYRK1A kinase (Homo sapiens (Human), UniProt Q13627); test: DYRK1A kinase assay (Ser/Thr 18 peptide Z-lyte FRET); assay type: biochemical; details: DYRK1A kinase activity, Z-lyte Ser/Thr 18 peptide, 15 μM ATP; method text calls the value IC50; read-out: EC50 (the source's name)
Method in brief: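 Z-lyte FRET read-out: coumarin (Em 455) over fluorescein (Em 520) emission ratio, converted to percent phosphorylation after 1 h development. Reaction: 0.25 μg/mL kinase, 15 μM ATP, 4 μM peptide, 1 h RT with compound, duplicate wells. IC50s fitted by non-linear regression.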

[2] = test system: Tau phosphorylation at Thr212 (pThr212) in HEK293T cells transfected with DYRK1A and MAPT; test: Tau phosphorylation phosphoTau (Thr212) AlphaLISA assay in HEK293T cells transfected with DYRK1A and MAPT; assay type: cell-based; details: HEK-293T, HEK293T cells transiently transfected with human DYRK1A and MAPT, compound treatment 18-24 hours, read-out: pTau (Thr212) EC50
Procedure: Representative compounds were screened using the assay procedure for tau phosphorylation activity described below.
HEK293T cells (ATCC, CRL3216) cultured in DMEM (Thermo Fisher Scientific, 10566024) supplemented with 10% FBS (Coming, 35-011—CV) and Penicillin/Streptomycin (Thermo Fisher Scientific, 15140163) were seeded in a 75 cm^2 flask at 8.1×10^6 cells/flask. The HEK293T cells were then transiently transfected with 5 μg DYRK1A (NM_001396) human untagged clone (OriGene, SC314641) and 2.5 μg MAPT (441 a.a. Tau gene) (NM_005910) human untagged clone (OriGene, TP313312) using Lipofectamine 3000 (Thermo Fisher Scientific, L30000015) and incubated for 20-30 hours in a humidified incubator at 37° C. and 5% CO^2. Post-incubation, HEK293T cells transfected with the DYRK1A and MAPT expression vectors were harvested and seeded in BioCoat poly-D lysine coated 96-well plates (Coming, 354461) at 3×10^4 cells/well.
The above synthesized compounds were screened using the cell assay procedure to assess decreased Tau phosphorylation at Thr212 (pThr212) described below.
Each compound was dissolved in DMSO (Sigma-Aldrich, D8418-100 mL) as a 10 mM stock. 10 mM stocks were serially diluted 1:3, 10-point dose-response curve and added to the cells with a final concentration ranging from 20 μM to 1.1 nM. Cells were treated with compounds in duplicate and incubated for 18-24 hours in a humidified incubator at 37° C. and 5% CO^2.
Following the overnight compound treatment, cells were lysed with 1X Alpha Surefire Ultra Lysis Buffer (Perkin Elmer, ALSU-LB-100ML) complemented with 1X Halt Phosphatase Inhibitor Cocktail (Thermo Fisher Scientific, 78427) and 1X Halt Protease Inhibitor Cocktail (Thermo Fisher Scientific, 78438). Lysates were spun down at 12,000 g for 10 min to remove any cellular debris and 5 μL of lysates were dispensed into a 384-well Opti-Plate (Perkin Elmer, 6007290) for the measurement of Tau phosphorylation in the phosphoTau (Thr212) AlphaLISA assay. Donor antibody, biotinylated HT7Tau (Thermo Fisher Scientific, MN1000B), and acceptor antibody, pThr212Tau (Thermo Fisher Scientific, 44740G) were both added to the cell lysates at a final concentration of 3 nM and incubated for 1 hour at room temperature. Following incubation of the lysates with the donor and acceptor antibodies, anti-rabbit IgG(Fc specific) AlphaLISA acceptor beads (Perkin Elmer, AL104C) were added at a 10 ug/mL final concentration and incubated for 1 hour at room temperature protected from light. Lastly, AlphaScreen streptavidin donor beads (PerkinElmer, 6760002) were added at 40 ug/mL final concentration and incubated for 1 hour at room temperature protected from light. Plates were read at […] on the EnVision Multilabel Plate Reader (Perkin Elmer). The phospho-Tau (Thr212) AlphaLISA signal was used to plot, draw the curve fitting, and determine each compound's EC50 in Prism (GraphPad).

SMILES | IC50 [1] [nM] | EC50 [2] [nM]
COc1nc(N[C@H]2C[C@](C)(NC(C)=O)C2)nn2ccc(-c3ccc4ncnn4c3)c12 [Compound 192, N-(trans-3-((5-([1,2,4]Triazolo[1,5-a]pyridin-6-yl)-4-methoxypyrrolo[2,1-f][1,2,4]triazin-2-yl)amino)-1-methylcyclobutyl)acetamide] | 0.9 | 18.1
COc1nc(N[C@H]2CC[C@](C)(O)CC2)nn2ccc(-c3ccc4nnn(C)c4c3)c12 [Compound 3, trans-4-((4-Methoxy-5-(1-methyl-1H-benzo[d][1,2,3]triazol-6-yl)pyrrolo[2,1-f][1,2,4]triazin-2-yl)amino)-1-methylcyclohexan-1-ol] | 1.5 | 197
COc1nc(N[C@H]2CC[C@](C)(O)CC2)nn2ccc(-c3cnc4nccn4c3)c12 [Compound 257, trans-4-((5-(Imidazo[1,2-a]pyrimidin-6-yl)-4-methoxypyrrolo[2,1-f][1,2,4]triazin-2-yl)amino)-1-methylcyclohexan-1-ol] | 0.4 | 15.1
COc1nc(N[C@H]2CC[C@](C)(O)CC2)nn2ccc(-c3ccn4nccc4c3)c12 [Compound 20, trans-4-((4-Methoxy-5-(pyrazolo[1,5-a]pyridin-5-yl)pyrrolo[2,1-f][1,2,4]triazin-2-yl)amino)-1-methylcyclohexan-1-ol] | 3.4 | 107
COc1nc(NC2CCC3(CC2)COC3)nn2ccc(-c3cnc4nccn4c3)c12 [Compound 276, 5-(Imidazo[1,2-a]pyrimidin-6-yl)-4-methoxy-N-(2-oxaspiro[3.5]nonan-7-yl)pyrrolo[2,1-f][1,2,4]triazin-2-amine] | 0.6 | 10.1
COc1nc(N[C@H]2C[C@](C)(O)C2)nn2ccc(-c3ccc4nccn4c3)c12 [Compound 44, trans-3-((5-(Imidazo[1,2-a]pyridin-6-yl)-4-methoxypyrrolo[2,1-f][1,2,4]triazin-2-yl)amino)-1-methylcyclobutan-1-ol] | – | 48.2
COc1nc(N[C@H]2CC[C@@](C)(O)CC2)nn2ccc(-c3cnc4nc(C)n(CC(F)F)c4c3)c12 [Compound 1, cis-4-((5-(1-(2,2-Difluoroethyl)-2-methyl-1H-imidazo[4,5-b]pyridin-6-yl)-4-methoxypyrrolo[2,1-f][1,2,4]triazin-2-yl)amino)-1-methylcyclohexan-1-ol] | 22.4 | 21.6
CC[C@]1(O)CC[C@H](Nc2nc(OC)c3c(-c4cnc5nccn5c4)ccn3n2)CC1 [Compound 258, trans-1-Ethyl-4-((5-(imidazo[1,2-a]pyrimidin-6-yl)-4-methoxypyrrolo[2,1-f][1,2,4]triazin-2-yl)amino)cyclohexan-1-ol] | 0.8 | 8.9
CNC(=O)[C@]1(C)C[C@@H](Nc2nc(OC)c3c(-c4ccc5nnn(C)c5c4)ccn3n2)C1 [Compound 210, trans-3-((4-Methoxy-5-(1-methyl-1H-benzo[d][1,2,3]triazol-6-yl)pyrrolo[2,1-f][1,2,4]triazin-2-yl)amino)-N,1-dimethylcyclobutane-1-carboxamide] | 1.5 | 19.7
C[C@]1(O)CC[C@H](Nc2nc(OC3COC3)c3c(-c4ccc5nccnc5c4)ccn3n2)CC1 [Compound 392, trans-1-Methyl-4-((4-(oxetan-3-yloxy)-5-(quinoxalin-6-yl)pyrrolo[2,1-f][1,2,4]triazin-2-yl)amino)cyclohexan-1-ol] | 1.4 | 25.2
COc1nc(N[C@H]2C[C@](C)(O)C2)nn2ccc(-c3ccc4nnn(C)c4c3)c12 [Compound 200, trans-3-((4-Methoxy-5-(1-methyl-1H-benzo[d][1,2,3]triazol-6-yl)pyrrolo[2,1-f][1,2,4]triazin-2-yl)amino)-1-methylcyclobutan-1-ol] | 3.8 | 130
COc1nc(N[C@H]2CC[C@](C)(O)CC2)nn2ccc(-c3ccc4ncnn4c3)c12 [Compound 194, trans-4-((5-([1,2,4]Triazolo[1,5-a]pyridin-6-yl)-4-methoxypyrrolo[2,1-f][1,2,4]triazin-2-yl)amino)-1-methylcyclohexan-1-ol] | 2.2 | 107
COc1nc(N[C@H]2CCN(C)C[C@H]2F)nn2ccc(-c3ccc4ncccc4c3)c12 [Compound 310, N-((3R,4S)-3-Fluoro-1-methylpiperidin-4-yl)-4-methoxy-5-(quinolin-6-yl)pyrrolo[2,1-f][1,2,4]triazin-2-amine] | 4.7 | 109
COc1nc(N[C@H]2CCN(C3COC3)C[C@H]2F)nn2ccc(-c3ccc4ncccc4c3)c12 [Compound 318, N-((3R,4S)-3-Fluoro-1-(oxetan-3-yl)piperidin-4-yl)-4-methoxy-5-(quinolin-6-yl)pyrrolo[2,1-f][1,2,4]triazin-2-amine] | 4.2 | 75.4
COc1nc(N[C@H]2CC[C@H](NC(C)=O)CC2)nn2ccc(-c3ccc4nccn4c3)c12 [Compound 54, N-(trans-4-((5-(Imidazo[1,2-a]pyridin-6-yl)-4-methoxypyrrolo[2,1-f][1,2,4]triazin-2-yl)amino)cyclohexyl)acetamide] | 1.2 | 25.7
COc1nc(N[C@@H]2CN(C(C)=O)C[C@@H]2F)nn2ccc(-c3ccc4nccnc4c3)c12 [Compound 352, 1-((3S,4R)-3-Fluoro-4-((4-methoxy-5-(quinoxalin-6-yl)pyrrolo[2,1-f][1,2,4]triazin-2-yl)amino)pyrrolidin-1-yl)ethan-1-one] | 2.2 | 39.4
COc1nc(N[C@H]2CC[C@](C)(O)CC2)nn2ccc(-c3cc(F)c4nccn4c3)c12 [Compound 431, (1r,4r)-4-((5-(8-Fluoroimidazo[1,2-a]pyridin-6-yl)-4-methoxypyrrolo[2,1-f][1,2,4]triazin-2-yl)amino)-1-methylcyclohexan-1-ol] | 2.3 | 129
COc1nc(NC2CC3(COC3)C2)nn2ccc(-c3cnc4nccn4c3)c12 [Compound 272, 5-(Imidazo[1,2-a]pyrimidin-6-yl)-4-methoxy-N-(2-oxaspiro[3.3]heptan-6-yl)pyrrolo[2,1-f][1,2,4]triazin-2-amine] | 1.3 | 13.4
COc1nc(N[C@@H]2CCC(F)(F)C2)nn2ccc(-c3cnc4nccn4c3)c12 [Compound 943, (R)—N-(3,3-Difluorocyclopentyl)-5-(imidazo[1,2-a]pyrimidin-6-yl)-4-methoxypyrrolo[2,1-f][1,2,4]triazin-2-amine] | 3.6 | 57.5
COc1nc(N[C@@H]2CCN(C3CCC3)CC2(F)F)nn2ccc(-c3ccc4nc(C)n(CC(F)F)c4c3)c12 [Compound 140, (R)—N-(1-Cyclobutyl-3,3-difluoropiperidin-4-yl)-5-(1-(2,2-difluoroethyl)-2-methyl-1H-benzo[d]imidazol-6-yl)-4-methoxypyrrolo[2,1-f][1,2,4]triazin-2-amine] | 10.7 | –
CCO[C@H]1C[C@@H](Nc2nc(OC)c3c(-c4ccc5ncnn5c4)ccn3n2)C1 [Compound 555, 5-([1,2,4]Triazolo[1,5-a]pyridin-6-yl)-N-(cis-3-ethoxycyclobutyl)-4-methoxypyrrolo[2,1-f][1,2,4]triazin-2-amine] | 5 | –
COc1nc(NC2CC3(C2)CN(C(C)=O)C3)nn2ccc(-c3ccn4nccc4c3)c12 [Compound 37, 1-(6-((4-Methoxy-5-(pyrazolo[1,5-a]pyridin-5-yl)pyrrolo[2,1-f][1,2,4]triazin-2-yl)amino)-2-azaspiro[3.3]heptan-2-yl)ethan-1-one] | 2.5 | –
